One block for each compound: values may come before it.
Legend:
[1] = system: MX-1 human breast cancer xenograft (BRCA1 and BRCA2 mutant); assay: MX-1 human breast cancer xenograft study; assay type: in vivo, mice
Protocol: (§1) Tumor measurements were taken twice weekly, using vernier calipers.
(§2) All statistical analyses were performed using GraphPad PRISM®. Version 6.00.
Tumor volumes of MX-1 induced xenografts in mice were measured after multiple intravenous doses of compound 8 at 15 mg/kg at day 1, day 5, day 8 and day 12 (two times per week for two weeks) for the main study group. […] MX-1 cell line is estrogen receptor negative and Her2 normal. It is BRCA1 and BRCA2 mutant: BRCA1 truncating mutation (3363delGAAA) and BRCA2 mutations (16864A>C, Asn289His, and 22184A>G, Asn991Asp). Satellite groups (n=5) were collected on Day 9 for platinum tumor measurements. […] Only one tumor from the 10 mg/kg group began to grow back at on Day 71, with a volume of 39 mm^3 at end of study, Day 75.

H460 tumors = assay: Tumor platinum levels in H460 tumor-bearing nude mice (ICP-MS); assay type: in vivo; conditions: dosed at 4 mg/kg, 24-hour time point
Protocol: To examine the ability of compounds disclosed herein to accumulate in tumors, a murine cancer model was used. Animals were inoculated with 5×10^5 H460 […] lung cancer cells via subcutaneous injection to the flank. Tumors were allowed to reach an approximate volume of ˜500 mm^3. Animals were then randomized into treatment groups of 3 animals per time point and were dosed at 4 mg/kg. The 24-hour time point was used as a benchmark across compounds.
Tumor platinum levels were determined by inductively coupled plasma mass spectrometry (ICP-MS). Tumors were excised from animals and dissolved in fuming nitric acid (60% w/w) by adding four parts nitric acid to 1 part tumor w/w and heating overnight at 60° C. The resulting digest was diluted 1:10 in ICP-MS analysis buffer (1% nitric acid, 2% Triton® X-100), and directly introduced into the ICP-MS unit by peristaltic pump. The end dilution factor for the samples as introduced to the ICP-MS was 50×.

[2] = target: albumin tryptic peptide T3 (Homo sapiens, UniProt P02768); assay: LC MS/MS analysis with albumin tryptic peptide T3; assay type: binding; conditions: FIG. 11B
albumin tryptic peptide T3, sequence (P02768 45-65 limits assumed): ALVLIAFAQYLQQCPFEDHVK
Excerpt: Signals of T3 endogenous conjugates and T3-Compound 8 conjugates were observed and were evidence that Compound 8 binds to T3.

[3] = in vivo
Protocol: (§3) Platinum concentrations in rat (n=3) and dog (n=3) were both measured in a course of 100 hours and 400 hours, respectively.

[4] = system: A2780 (ovarian) xenografts; conditions: compound 8 at 20 mg/kg, FIG. 20
Protocol: In these experiments, the ability of compounds to affect the growth of human Calu-6 NSCLC (non-small cell lung cancer) A2780 (ovarian), MIA Paca-2 (pancreatic) and BxPC-3 (pancreatic) xenografts was tested. […] For the MIA Paca-2, BxPC-3 in vivo studies, the tumor material was maintained by serial engraftment in female nude NCR nude mice. To initiate tumor growth, a 1 mm^3 fragment was implanted subcutaneously in the right flank of each test animal. The animals were 9 and 10-11 weeks old at the time the study started for BxPC-3 and MIA Paca-2 models, respectively. For the MX-1 in vivo studies, tumor material was maintained by serial engraftment in athymic nude mice. To initiate tumor growth a 3×3 mm pieces implanted subcutaneously in the right flank of each test animal. The animals were 5 weeks old at the time of implantation.
Tumor measurements were taken twice weekly, using vernier calipers. Tumor volume was calculated using the formula: V=0.5×width×width×length.
When tumors approached a volume of 100 mm^3, mice were randomized into three groups of ten animals. […] Mice were dosed twice weekly for the duration of the study. […] Twenty-four hours after the final dose tumor volumes were measured again for calculation of tumor growth inhibition. […] Final tumor volumes were analyzed using with a one-way analysis of variance and Tukey multiple comparison test.

[5] = in vivo; remark: listed apart in the source
Protocol: as §3

[6] = system: NCI-H520 lung cancer (NSCLC) model; assay: NCI-H520 multiple dose study: tumor volume, platinum levels, IHC and TUNEL; assay type: in vivo; conditions: day 10, FIG. 24 and 25
Protocol: Tumor volumes and platinum levels were tracked over a course of 32 days after treatment of multiple doses of compound 8 (dosed at days 0, 3, 7 and 10) in lung cancer (NSCLC) model NCI-H520. Compound 8 was dosed at 15 mg/kg.
Cell dedifferentiation and apoptosis were studied with immunohistochemical (IHC) and TUNEL stainings.

[7] = system: BxPC-3 (pancreatic) xenografts, KRAS wild type; assay: BxPC-3 xenograft tumor growth inhibition; assay type: in vivo, mice; conditions: Table 4-2; compound 5 at 15 mg/kg iv twice weekly
Protocol: as §1, §2

Compound: N.N.[Cl][Pt][Cl] [Cisplatin, reference compound]
TGI % at Day 12 ([1]; 3 mg/kg, day 1, 5, 8, 12): 95.1% | tumor regrowth at end of study, Day 75 ([1]; cisplatin treated group, 3 mg/kg): no tumor regrowth | Platinum in tumor (H460 tumors): 0.27 mM/mmole/kg platinum dosed

Compound: CC(=O)[O][Pt]([NH2])([NH2])([Cl])([Cl])[O]C(=O)NCCCCCN1C(=O)C=CC1=O [Compound 8]
binding to albumin tryptic peptide T3 [2]: binds to T3 | Half-life Dog [3]: 174 h | tumor inhibition versus cisplatin [4]: superior efficacy in tumor inhibition compared to cisplatin | tumor regrowth at end of study, Day 75 ([1]; 15 mg/kg group): no tumor regrowth | tumor volume outcome ([1]; day 12): Tumor disappeared | platinum delivered to the tumor versus cisplatin ([1]; satellite groups, Day 9, FIG. 30): higher concentrations of platinum to the tumor than cisplatin | Half-life Rat [5]: 44 h | apoptosis and dedifferentiation (IHC, TUNEL) [6]: significant and sustained increase in apoptosis and dedifferentiation

Compound: O=C1[O][Pt]2([NH][C@@H]3CCCC[C@H]3[NH]2)[O]C1=O [Oxaliplatin]
Platinum in tumor (H460 tumors): 0.12 mM/mmole/kg platinum dosed | TGI % [7]: 21.0%

Platinum in tumor (H460 tumors): 0.57 mM/mmole/kg platinum dosed
Compound: acetate 6-(2,5-dioxo-2H-pyrrol-1(5H)-yl) hexanoate oxaliplatin [Compound 1]
